Measured values from ChEMBL document CHEMBL1201862, “PubChem BioAssay data set” (2004).
Structures can show the parent of a compound that is named as a salt.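 The compound was tested at five concentrations on cells cultured in 96-well plates, with a 48-hour exposure period. Abbreviation: GI50, concentration required for 50% inhibition of growth.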 The source made the active and inactive calls. Rule as the data show it: active = GI50 up to about 1.1 µM and inactive = higher. Where a SMILES comes first, the peptide text is derived from it. Non-standard residues stand in square brackets, D forms with d. Residues, ends and D or L forms follow the SMILES beside them. The star is where a group is joined. *: point of attachment. Bn2Val = CC(C)[C@@H](C(=O)*)N(Cc1ccccc1)Cc1ccccc1; NH(4-Cl-benzyl) = Clc1ccc(CN*)cc1; NMeV = CN[C@H](C(=O)O)C(C)C; dNMeA = CN[C@H](C)C(=O)O; Boc = CC(C)(C)OC(=O)*

How the values were obtained:
Test in all cases: NCI anticancer screen, dose series, 48 h
[1] = test system: EKVX
[2] = test system: CAKI-1
[3] = test system: SW-620
[4] = test system: SNB-19
[5] = test system: T47D
[6] = test system: UACC-257
[7] = test system: M14
[8] = test system: MOLT-4
[9] = test system: UACC-62
[10] = test system: SF-295
[11] = test system: MDA-MB-435
[12] = test system: SK-MEL-2
[13] = test system: PC-3
[14] = test system: DU-145
[15] = test system: U-251
[16] = test system: HCT-15
[17] = test system: UO-31
[18] = test system: OVCAR-8
[19] = test system: IGROV-1
[20] = test system: COLO 205

| Compound | GI50 [1] | GI50 [2] | GI50 [3] | GI50 [4] | GI50 [5] | GI50 [6] | GI50 [7] | GI50 [8] | GI50 [9] | GI50 [10] | GI50 [11] | GI50 [12] | GI50 [13] | GI50 [14] | GI50 [15] | GI50 [16] | GI50 [17] | GI50 [18] | GI50 [19] | GI50 [20] |
| --- | --- | --- | --- | --- | --- | --- | --- | --- | --- | --- | --- | --- | --- | --- | --- | --- | --- | --- | --- | --- |
| CCOC(=O)C(CC(C)C)NC(=O)C(Cc1ccccc1)NC(=O)CNC(=O)OC(C)(C)C (stereo not drawn) (Boc-Gly-Phe-Leu-OEt; configuration not given here) | 22.3 µM (inactive) | 0.145 µM (active) | 20.6 µM (inactive) | 31.6 µM (inactive) | 26.5 µM (inactive) | 19.7 µM (inactive) | 20 µM (inactive) | 11.1 µM (inactive) | 18.4 µM (inactive) | 34.8 µM (inactive) | 18.2 µM (inactive) | 28.9 µM (inactive) | 20 µM (inactive) | 21.3 µM (inactive) | 17.7 µM (inactive) | 18.4 µM | 45.8 µM (inactive) | 21.7 µM (inactive) | 21.6 µM (inactive) |  |
| O=C(Nc1ccccc1)c1cc(S(=O)(=O)n2ccnc2O)c(S)cc1Cl | > 100 µM (inactive) | > 100 µM (inactive) | > 100 µM (inactive) | > 100 µM (inactive) | > 100 µM (inactive) | > 100 µM (inactive) | > 100 µM (inactive) | > 100 µM (inactive) | > 100 µM (inactive) | > 100 µM (inactive) | > 100 µM (inactive) | > 100 µM (inactive) | > 100 µM (inactive) | > 100 µM (inactive) | > 100 µM (inactive) | > 100 µM | > 100 µM (inactive) | > 100 µM (inactive) | > 100 µM (inactive) | > 100 µM (inactive) |
| c1ccc(/C(=N/Nc2ccccn2)c2ncccn2)cc1 | 0.292 µM (active) | 0.0528 µM (active) | 0.0982 µM (active) | 4.26 µM (inactive) | 0.0346 µM (active) | 0.729 µM (active) | 0.386 µM (active) | 0.0662 µM (active) | 2.82 µM (inactive) | 3.6 µM (inactive) | 2.77 µM (inactive) | > 28 µM (inactive) | 9.16 µM (inactive) | 3.99 µM (inactive) | 2.07 µM (inactive) | 0.526 µM | 0.617 µM (active) | 0.369 µM (active) | 2.07 µM (inactive) | < 0.0139 µM (active) |
| CC(C)[C@H](NC(=O)[C@H](C(C)C)N(Cc1ccccc1)Cc1ccccc1)C(=O)N(C)[C@H](C(=O)N1CCC[C@H]1C(=O)N(C)[C@H](C)C(=O)NCc1ccc(Cl)cc1)C(C)C (Bn2Val-V[NMeV]P[dNMeA]-{NH(4-Cl-benzyl)}) | 2.46 µM (inactive) | 5.94 µM (inactive) | 3.72 µM (inactive) | 4.24 µM (inactive) | 3.51 µM (inactive) | 4.78 µM (inactive) | 4.01 µM (inactive) | 2.42 µM (inactive) | 3.32 µM (inactive) | 3.11 µM (inactive) | 4.03 µM (inactive) | 1.62 µM (inactive) | 2.75 µM (inactive) | 4.11 µM (inactive) | 2.86 µM (inactive) | 3.13 µM |  | 4.22 µM (inactive) | 2.69 µM (inactive) | 2.09 µM (inactive) |
| CCCCOCCOCCOC1=CC(=O)c2c(O)ccc(O)c2C1=O | 5.19 µM (inactive) | 1.95 µM (inactive) | 1.57 µM (inactive) | 1.79 µM (inactive) | 2.65 µM (inactive) | 1.58 µM (inactive) | 1.51 µM (inactive) | 2.65 µM (inactive) | 1.82 µM (inactive) | 1.68 µM (inactive) | 0.188 µM (active) | 1.9 µM (inactive) | 3 µM (inactive) | 1.7 µM (inactive) | 1.85 µM (inactive) |  | 1.58 µM (inactive) |  | 1.89 µM (inactive) | 1.4 µM (inactive) |
| CNC1=C(C)C(=O)C(O)=C([C@H](C)CCC=C(C)C)C1=O | 2.33 µM (inactive) | 11.6 µM (inactive) | 23.9 µM (inactive) | 31.8 µM (inactive) | 25.4 µM (inactive) | 32.7 µM (inactive) | 22.2 µM (inactive) | 6.18 µM (inactive) | 13 µM (inactive) | 11.4 µM (inactive) | 29.6 µM (inactive) | 17.7 µM (inactive) | 22.6 µM (inactive) | 30.6 µM (inactive) | 27.7 µM (inactive) | 6.92 µM | 9.82 µM (inactive) | 10.7 µM (inactive) | 3.91 µM (inactive) | 25.4 µM (inactive) |
| CCOC(=O)c1cn(C)c(=S)n2c1nc1ccccc12 | > 100 µM (inactive) | 91.4 µM (inactive) | > 100 µM (inactive) | 83.8 µM (inactive) | > 100 µM (inactive) | > 100 µM (inactive) | > 100 µM (inactive) | 95.7 µM (inactive) | 21.8 µM (inactive) | 59.4 µM (inactive) | > 100 µM (inactive) | 40.2 µM (inactive) | 48.1 µM (inactive) | > 100 µM (inactive) | > 100 µM (inactive) | 91 µM | 4.73 µM (inactive) | 30.8 µM (inactive) | 34.3 µM (inactive) | > 100 µM (inactive) |
| Nc1ccc(S(=O)(=O)Nc2cnc3c(Cl)cccc3n2)cc1 [CHLORSULFAQUINOXALINE] | 222 µM (inactive) | 56.2 µM (inactive) | 26.1 µM (inactive) | 92.3 µM (inactive) | 96.2 µM (inactive) | 344 µM (inactive) | 274 µM (inactive) | 75.2 µM (inactive) | 36.7 µM (inactive) | 31.4 µM (inactive) | > 70 µM (inactive) | 226 µM (inactive) | 86.1 µM (inactive) | 175 µM (inactive) | 207 µM (inactive) | 53 µM | 151 µM (inactive) | 144 µM (inactive) | 2.58 µM (inactive) | 23.9 µM (inactive) |
| O=C(O)c1ccc(Oc2nc3ccccc3s2)cc1 | > 100 µM (inactive) | > 100 µM (inactive) | > 100 µM (inactive) | > 100 µM (inactive) | > 100 µM (inactive) | > 100 µM (inactive) | > 100 µM (inactive) | > 100 µM (inactive) | > 100 µM (inactive) | > 100 µM (inactive) | > 100 µM (inactive) | > 100 µM (inactive) | > 100 µM (inactive) | > 100 µM (inactive) | > 100 µM (inactive) | > 100 µM | > 100 µM (inactive) | > 100 µM (inactive) | > 100 µM (inactive) | > 100 µM (inactive) |
| Cc1nn(C(=O)c2ccccc2O)c2c1C(c1ccco1)SC(=N)N2 (centres undefined) | > 10 µM (inactive) | 3.48 µM (inactive) | 5.24 µM (inactive) | > 10 µM (inactive) | 4.83 µM (inactive) | 9.89 µM (inactive) | 3.5 µM (inactive) | 3.61 µM (inactive) | 2.13 µM (inactive) | > 10 µM (inactive) | 7.29 µM (inactive) | > 10 µM (inactive) | 3.73 µM (inactive) | 3.63 µM (inactive) | 5.28 µM (inactive) | 3.53 µM | 5.6 µM (inactive) | 3.61 µM (inactive) | 4.42 µM (inactive) | 5.83 µM (inactive) |
| CC1=C(C(=O)OC2CC3CCC2(C)C3(C)C)C2Nc3ccccc3N(C)C2O1 (centres undefined) | 5.12 µM (inactive) | 2.95 µM (inactive) | 2.14 µM (inactive) | 3.48 µM (inactive) | 3.04 µM (inactive) | 1.79 µM (inactive) | 1.63 µM (inactive) | 1.84 µM (inactive) | 1.98 µM (inactive) | 1.72 µM (inactive) | 1.54 µM (inactive) | 2.35 µM (inactive) | 2.52 µM (inactive) | 1.47 µM (inactive) | 3.58 µM (inactive) | 2.01 µM | 2.5 µM (inactive) | 2.37 µM (inactive) | 1.77 µM (inactive) | 0.918 µM (active) |
| c1ccc([C@H]2CN3CCSC3=N2)cc1 [LEVAMISOLE HYDROCHLORIDE] | > 100 µM (inactive) | > 100 µM (inactive) | > 100 µM (inactive) | > 100 µM (inactive) | > 100 µM (inactive) | > 100 µM (inactive) | > 100 µM (inactive) | > 100 µM (inactive) | > 100 µM (inactive) | > 100 µM (inactive) | > 100 µM (inactive) | > 100 µM (inactive) | > 100 µM (inactive) | > 100 µM (inactive) | > 100 µM (inactive) | > 100 µM | > 100 µM (inactive) | > 100 µM (inactive) | > 100 µM (inactive) | > 100 µM (inactive) |
| O=C(c1ccco1)N(C(=O)N1CCC(c2ccccc2)CC1)c1ccccc1 | 20.2 µM (inactive) | > 100 µM (inactive) | > 100 µM (inactive) | > 100 µM (inactive) | 21.4 µM (inactive) | 38.9 µM (inactive) | 41.4 µM (inactive) | 17.7 µM (inactive) | 52.1 µM (inactive) |  | 35 µM (inactive) | 42.5 µM (inactive) | 22.3 µM (inactive) | 83 µM (inactive) | 76.2 µM (inactive) | 42 µM | 24.4 µM (inactive) | 40.7 µM (inactive) | 25.9 µM (inactive) | 39.7 µM (inactive) |
| CC(C)OP(=O)(OC(C)C)/C(C#N)=C/c1c[nH]c2ccccc12 | 48.9 µM (inactive) | > 100 µM (inactive) | > 100 µM (inactive) | > 100 µM (inactive) | 49.8 µM (inactive) | 54.3 µM (inactive) | 60.7 µM (inactive) | 88.3 µM (inactive) | 76.6 µM (inactive) | 38.9 µM (inactive) | 65.5 µM (inactive) | > 100 µM (inactive) | 67.6 µM (inactive) | > 100 µM (inactive) | > 100 µM (inactive) | > 100 µM |  | 54.6 µM (inactive) | > 100 µM (inactive) | 88.9 µM (inactive) |
